From ChEMBL document CHEMBL4000216, “Lignan derivatives from Selaginella tamariscina and their nitric oxide inhibitory effects in LPS-stimulated RAW 264.7 cells” (Bioorg Med Chem Lett, 2017)
Calls of active or inactive are those of the source. The rule behind the calls is not given here.

Assays:
RAW264.7 [1] = assay: Inhibition of LPS-induced NO production in mouse RAW264.7 cells preincubated for 1 hr followed by LPS stimulation for 24 hrs by Griess assay; assay type: functional, cell-based
RAW264.7 [2] = assay: Cytotoxicity against mouse RAW264.7 cells assessed as reduction in cell viability at 3 to 60 uM after 24 hrs by MTT assay; assay type: cell-based; conditions: raw264.7, 24 h
RAW264.7 [3] = assay: Inhibition of LPS-induced NO production in mouse RAW264.7 cells at 3 to 60 uM preincubated for 1 hr followed by LPS stimulation for 24 hrs by Griess assay; assay type: functional, cell-based

Row | SMILES | IC50 (RAW264.7 [1]) [µM] | Activity (RAW264.7 [2]) | inhibition (RAW264.7 [3])
1 | COc1cc([C@H]2OC[C@H]3[C@@H]2CO[C@@H]3c2cc(OC)c(O[C@@H]3O[C@H](CO)[C@@H](O)[C@H](O)[C@H]3O)c(OC)c2)cc(OC)c1O[C@@H]1O[C@H](CO)[C@@H](O)[C@H](O)[C@H]1O [LIRIODENDRIN] |  | Non-Toxic | inactive
2 | COc1cc([C@@H]2Oc3c(OC)cc(C(C)=O)cc3[C@H]2CO)cc(OC)c1O[C@@H]1O[C@H](CO)[C@@H](O)[C@H](O)[C@H]1O | 32.4 | Non-Toxic | 
3 | COc1cc([C@@H]2Oc3c(OC)cc(C(C)=O)cc3[C@H]2CO)cc(OC)c1O[C@@H]1O[C@H](CO[C@@H]2O[C@H](CO)[C@@H](O)[C@H](O)[C@H]2O)[C@@H](O)[C@H](O)[C@H]1O |  | Non-Toxic | inactive

Continued, in another order:

Row | IC50 (RAW264.7 [1]) [µM] | SMILES | Activity (RAW264.7 [2]) | inhibition (RAW264.7 [3])
4 | 40.9 | COc1cc(C[C@@H](CO[C@@H]2O[C@H](CO)[C@@H](O)[C@H](O)[C@H]2O)c2cc(C(C)=O)cc(OC)c2O)cc(OC)c1O | Non-Toxic | 
5 | 32.3 | COc1cc([C@@H]2Oc3c(OC)cc(C(C)=O)cc3[C@H]2CO)cc(OC)c1O | Non-Toxic | 
6 | 55.8 | COc1cc([C@@H]2Oc3c(OC)cc(C(C)=O)cc3[C@H]2CO[C@@H]2O[C@H](CO)[C@@H](O)[C@H](O)[C@H]2O)cc(OC)c1O | Non-Toxic | 
7 | 9.3 | O=C1/C(=C/c2ccc(O)c(O)c2)COc2cc(O)ccc21 [SAPPANONE A] |  | 
